Measurements as given in ChEMBL document CHEMBL2010717, “Design of oxobenzimidazoles and oxindoles as novel androgen receptor antagonists” (Bioorg Med Chem Lett, 2012).
In brackets after ≈: the same amount, converted by molar mass.

Columns and labels:
[1] = biological target: T1, Androgen receptor (Homo sapiens) (UniProt P10275); assay: Agonist activity at androgen receptor in human LNAR cells expressing ARE-PSA-LUC at 1 uM by luminescence analysis relative to RD-162; type: functional, cell-based
T1 sequence (whole entry): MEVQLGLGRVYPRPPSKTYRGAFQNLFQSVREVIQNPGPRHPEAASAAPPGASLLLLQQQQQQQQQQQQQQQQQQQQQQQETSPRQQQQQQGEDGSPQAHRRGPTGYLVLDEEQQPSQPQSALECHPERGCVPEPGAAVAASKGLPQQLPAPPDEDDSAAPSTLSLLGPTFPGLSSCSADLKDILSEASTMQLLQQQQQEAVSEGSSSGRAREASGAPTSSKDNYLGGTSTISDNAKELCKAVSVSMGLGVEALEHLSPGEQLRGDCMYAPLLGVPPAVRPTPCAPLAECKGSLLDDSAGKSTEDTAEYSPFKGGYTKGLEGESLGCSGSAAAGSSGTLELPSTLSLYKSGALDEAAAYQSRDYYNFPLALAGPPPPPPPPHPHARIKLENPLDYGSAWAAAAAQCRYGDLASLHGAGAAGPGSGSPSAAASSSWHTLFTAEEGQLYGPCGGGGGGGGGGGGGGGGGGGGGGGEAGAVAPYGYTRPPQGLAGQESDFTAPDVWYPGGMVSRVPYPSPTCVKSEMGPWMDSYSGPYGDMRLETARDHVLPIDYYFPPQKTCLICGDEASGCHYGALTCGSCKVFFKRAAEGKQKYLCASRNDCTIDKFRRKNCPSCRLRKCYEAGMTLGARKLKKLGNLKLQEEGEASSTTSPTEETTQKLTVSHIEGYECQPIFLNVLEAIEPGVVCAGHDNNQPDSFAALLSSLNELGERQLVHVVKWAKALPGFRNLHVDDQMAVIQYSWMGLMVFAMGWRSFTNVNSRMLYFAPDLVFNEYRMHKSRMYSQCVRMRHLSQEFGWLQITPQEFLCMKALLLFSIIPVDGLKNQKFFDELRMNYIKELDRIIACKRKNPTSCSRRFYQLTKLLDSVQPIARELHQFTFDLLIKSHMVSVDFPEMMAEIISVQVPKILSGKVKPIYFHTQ

[2] = Aqueous solubility of the compound; type: physicochemical
[3] = biological target: T1, Androgen receptor (Homo sapiens); assay: Antagonist activity at androgen receptor in human LNAR cells expressing ARE-PSA-LUC at 1 uM by luminescence analysis in presence of R1881; type: functional, cell-based
Androgen receptor = biological target: T2, Androgen receptor (Homo sapiens, UniProt P10275); assay: Antagonist activity at androgen receptor in human LNAR cells expressing ARE-PSA-LUC by luminescence analysis in presence of R1881; type: functional, cell-based
T2 sequence (P10275 whole entry): T1 sequence (whole entry)

[4] = Metabolic stability in human liver microsomes assessed as extraction ratio; type: ADME, Microsome; settings: read-out: ERH

With CC(c1nc(-c2ccccn2)no1)n1c(=O)n(-c2ccc(C#N)c(Cl)c2)c2ccccc21 (single isomer, unassigned; (+)) [listing 1 of 2 here] the fold change (FC) [1] was 0.874.
For CNC(=O)c1ccc(Cn2c(=O)n(-c3ccc(C#N)c(C(F)(F)F)c3)c3ccccc32)cc1F, the fold change (FC) [1] was 1.08, the solubility ([2]; aqueous, read-out: solubility) was 9.9 µM (≈ 4.64 µg/mL) and the inhibition [3] was 72.5%.
Compound CNC(=O)c1ccc(-n2c(=O)n(-c3ccc(C#N)c(C(F)(F)F)c3)c3ccccc32)cc1F has a fold change (FC) [1] of 1.44, a solubility ([2]; aqueous, read-out: solubility) of 8.81 µM (≈ 4 µg/mL) and an inhibition [3] of 28.7%.
With CC(c1ccccc1)n1c(=O)n(-c2ccc(C#N)c(C(F)(F)F)c2)c2ccccc21 (single isomer, unassigned; (+)) [listing 1 of 2 here] the solubility ([2]; buffer) was 4.41 µM (≈ 1.8 µg/mL) and the IC50 (Androgen receptor) was 292 nM.
In the case of CC(c1ccccc1)n1c(=O)n(-c2ccc(C#N)c(C(F)(F)F)c2)c2ccccc21 (stereo in doubt; (-)-20) [listing 1 of 2 here], the solubility ([2]; aqueous, read-out: solubility) is reported as 5.58 µM (≈ 2.27 µg/mL) and the IC50 (Androgen receptor) is reported as 363 nM.
N#Cc1ccc(-n2c(=O)n(Cc3ccccn3)c3ccccc32)cc1C(F)(F)F showed a fold change (FC) [1] of 1.03, a solubility ([2]; aqueous, read-out: solubility) of 12 µM (≈ 4.73 µg/mL) and an IC50 (Androgen receptor) of 301 nM.
For CNC(=O)c1ccc(-c2ccc3c(c2)C(C)(C)C(=O)N3c2ccc(C#N)c(OC)c2)cc1F, the hepatic extraction ratio [4] was under 0.25, the fold change (FC) [1] was 0.884 and the solubility ([2]; aqueous, read-out: solubility) was 9.7 µM (≈ 4.3 µg/mL). The IC50 (Androgen receptor) was 165 nM.
For CNC(=O)c1ccc(-c2ccc3c(c2)C(C)(C)C(=O)N3c2ccc(C#N)c(C(F)(F)F)c2)cc1F, the hepatic extraction ratio [4] was 0.4, the fold change (FC) [1] was 0.941 and the solubility ([2]; aqueous, read-out: solubility) was 6.25 µM (≈ 3.01 µg/mL). The IC50 (Androgen receptor) was 197 nM.
Compound CC(C)n1c(=O)n(-c2ccc(C#N)c(C(F)(F)F)c2)c2ccccc21 has a fold change (FC) [1] of 0.965, a solubility ([2]; aqueous, read-out: solubility) of 9.3 µM (≈ 3.21 µg/mL) and an IC50 (Androgen receptor) of 373 nM.
CC(c1nc(-c2ccccn2)no1)n1c(=O)n(-c2ccc(C#N)c(Cl)c2)c2ccccc21 (single isomer, unassigned; (+)) [listing 2 of 2 here] showed a solubility ([2]; aqueous, read-out: solubility) of 9.45 µM (≈ 4.19 µg/mL) and an IC50 (Androgen receptor) of 178 nM.
Compound N#Cc1ccc(-n2c(=O)n(Cc3ccccc3)c3ncccc32)cc1C(F)(F)F has a fold change (FC) [1] of 0.951 and an IC50 (Androgen receptor) of 588 nM.
CC1(C)C(=O)N(c2ccc(C#N)c(C(F)(F)F)c2)c2ccccc21 showed a fold change (FC) [1] of 1.96 and an inhibition [3] of 75.7%.
With CC(c1nc(-c2ccccn2)no1)n1c(=O)n(-c2ccc(C#N)c(Cl)c2)c2ccccc21 (stereo in doubt; (-)-23) [listing 1 of 2 here] the IC50 (Androgen receptor) was 189 nM.
CC(c1nc(-c2ccccn2)no1)n1c(=O)n(-c2ccc(C#N)c(Cl)c2)c2ccccc21 (stereo in doubt; (-)-23) [listing 2 of 2 here] gave a fold change (FC) [1] of 0.945.
Work on Cc1ccc(-n2c(=O)n(-c3ccc(C#N)c(C(F)(F)F)c3)c3ccccc32)cc1 yielded a fold change (FC) [1] of 0.88, a solubility ([2]; aqueous, read-out: solubility) of 0.79 µM (≈ 0.311 µg/mL) and an inhibition [3] of 12.6%.
N#Cc1ccc(-n2c(=O)n(Cc3cccnc3)c3ccccc32)cc1C(F)(F)F showed a fold change (FC) [1] of 0.984, a solubility ([2]; aqueous, read-out: solubility) of 2.5 µM (≈ 0.986 µg/mL) and an IC50 (Androgen receptor) of 389 nM.
With CCn1c(=O)n(-c2ccc(C#N)c(C(F)(F)F)c2)c2ccccc21 the fold change (FC) [1] was 1.08, the solubility ([2]; aqueous, read-out: solubility) was 3.47 µM (≈ 1.15 µg/mL) and the IC50 (Androgen receptor) was 293 nM.
N#Cc1ccc(-n2c(=O)[nH]c3ccccc32)cc1C(F)(F)F showed a fold change (FC) [1] of 6.2, a solubility ([2]; aqueous, read-out: solubility) of 7.9 µM (≈ 2.4 µg/mL) and an inhibition [3] of 60.1%.
In the case of CC(c1ccccc1)n1c(=O)n(-c2ccc(C#N)c(C(F)(F)F)c2)c2ccccc21 (single isomer, unassigned; (+)) [listing 2 of 2 here], the fold change (FC) [1] is reported as 0.904.
With N#Cc1ccc(-n2c(=O)n(Cc3nc(-c4ccccn4)no3)c3ccccc32)cc1Cl the fold change (FC) [1] was 0.941, the solubility ([2]; aqueous, read-out: solubility) was 5.9 µM (≈ 2.53 µg/mL) and the IC50 (Androgen receptor) was 126 nM.
Compound COc1cc(N2C(=O)C(C)(C)c3cc(-c4cccnc4OC)ccc32)ccc1C#N has a fold change (FC) [1] of 1.04, a solubility ([2]; aqueous, read-out: solubility) of 9.8 µM (≈ 3.91 µg/mL) and an IC50 (Androgen receptor) of 79.6 nM.
For N#CCn1c(=O)n(-c2ccc(C#N)c(C(F)(F)F)c2)c2ccccc21, the fold change (FC) [1] was 1.42, the solubility ([2]; aqueous, read-out: solubility) was 18.9 µM (≈ 6.47 µg/mL) and the inhibition [3] was 94.8%.
CC(c1ccccc1)n1c(=O)n(-c2ccc(C#N)c(C(F)(F)F)c2)c2ccccc21 (stereo in doubt; (-)-20) [listing 2 of 2 here] showed a fold change (FC) [1] of 0.833.
Compound N#Cc1ccc(-n2c(=O)n(Cc3ccccc3)c3cccnc32)cc1C(F)(F)F has a fold change (FC) [1] of 1.13, a solubility ([2]; aqueous, read-out: solubility) of under 0.5 µM and an IC50 (Androgen receptor) of 60.6 nM.
Compound N#Cc1ncc(-n2c(=O)n(Cc3ccccc3)c3cccnc32)cc1C(F)(F)F has a fold change (FC) [1] of 1.1, a solubility ([2]; aqueous, read-out: solubility) of 1.7 µM (≈ 0.672 µg/mL) and an inhibition [3] of 96.3%.
With N#Cc1ccc(-n2c(=O)n(Cc3ccccc3)c3ccccc32)cc1C(F)(F)F the fold change (FC) [1] was 1.04, the solubility ([2]; aqueous, read-out: solubility) was under 0.16 µM and the IC50 (Androgen receptor) was 170 nM.
Compound N#Cc1ncc(-n2c(=O)n(Cc3ccccc3)c3ccccc32)cc1C(F)(F)F has a fold change (FC) [1] of 1.04, a solubility ([2]; aqueous, read-out: solubility) of 5.3 µM (≈ 2.09 µg/mL) and an inhibition [3] of 91%.
